Results: patent US9096560B2, “5-heterocyclylalkyl-3-hydroxy-2-phenylcyclopent-2-enones as herbicides” (Syngenta Limited, priority 2008, dated 2015)

Key:
Format in all cases: in vivo
[1] = test system: Lolium perenne (LOLPE); assay: Example B pre-emergence herbicidal test, LOLPE; settings: Lolium perenne, 312 h, rate 250 g/ha, evaluated after 13 days, 100=total damage to plant, 0=no damage to plant
Method in brief: (§1)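 Pots sown, sprayed day 1 pre-emergence; spray: aqueous dilution of formulation in acetone/water 50:50 + 0.5% Tween 20. Glasshouse 24/16° C, 14 h light, 65% RH, watering twice daily. Visual damage rating at 13 d, 0–100 scale.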

[2] = test system: Alopecurus myosuroides (ALOMY); assay: Example B pre-emergence herbicidal test, ALOMY; settings: Alopecurus myosuroides, 312 h, rate 250 g/ha, evaluated after 13 days, 100=total damage to plant, 0=no damage to plant
Method in brief: as §1

[3] = test system: Echinochloa crus-galli (ECHCG); assay: Example B pre-emergence herbicidal test, ECHCG; settings: Echinochloa crus-galli, 312 h, rate 250 g/ha, evaluated after 13 days, 100=total damage to plant, 0=no damage to plant
Method in brief: as §1

[4] = test system: Avena fatua (AVEFA); assay: Example B pre-emergence herbicidal test, AVEFA; settings: Avena fatua, 312 h, rate 250 g/ha, evaluated after 13 days, 100=total damage to plant, 0=no damage to plant
Method in brief: as §1

[5] = test system: Lolium perenne (LOLPE); assay: Example B post-emergence herbicidal test, LOLPE; settings: Lolium perenne, 312 h, rate 250 g/ha, evaluated after 13 days, scale 0-100, read-out: Post-emergence activity LOLPE (100=total damage to plant; 0=no damage to plant)
Method in brief: (§2)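 Damage was rated visually 13 days after treatment, where 100 meant total plant damage and 0 none. Treatment was a spray of aqueous solution (acetone/water 50:50, 0.5% Tween 20) applied to plants cultivated 8 days from seed under controlled glasshouse conditions.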

[6] = test system: Alopecurus myosuroides (ALOMY); assay: Example B post-emergence herbicidal test, ALOMY; settings: Alopecurus myosuroides, 312 h, rate 250 g/ha, evaluated after 13 days, scale 0-100, read-out: Post-emergence activity ALOMY (100=total damage to plant; 0=no damage to plant)
Method in brief: as §2

[7] = test system: Echinochloa crus-galli (ECHCG); assay: Example B post-emergence herbicidal test, ECHCG; settings: Echinochloa crus-galli, 312 h, rate 250 g/ha, evaluated after 13 days, scale 0-100, read-out: Post-emergence activity ECHCG (100=total damage to plant; 0=no damage to plant)
Method in brief: as §2

[8] = test system: Avena fatua (AVEFA); assay: Example B post-emergence herbicidal test, AVEFA; settings: Avena fatua, 312 h, rate 250 g/ha, evaluated after 13 days, scale 0-100, read-out: Post-emergence activity AVEFA (100=total damage to plant; 0=no damage to plant)
Method in brief: as §2

[9] = test system: Winter Wheat variety 'Hereward'; assay: Example C crop damage test on Winter Wheat, post-emergence, no safener; settings: Triticum aestivum, 312 h, rate 250 g/ha, evaluated after 13 days, read-out: Winter Wheat (Hereward) damage (100=total damage to plant; 0=no damage to plant)
Method: Seeds of the Winter Wheat variety ‘Hereward’ were sown in standard soil in pots. After 8 days cultivation under controlled conditions in a glasshouse (at 24/16° C., day/night; 14 hours light; 65% humidity), the plants were sprayed with an aqueous spray solution derived from the formulation of the technical active ingredient in acetone/water (50:50) solution containing 0.5% Tween 20 (polyoxyethelyene sorbitan monolaurate, CAS RN 9005-64-5). The test plants were then grown in a glasshouse under controlled conditions in a glasshouse (at 24/16° C., day/night; 14 hours light; 65% humidity) and watered twice daily. After 13 days for pre and post-emergence, the test was evaluated (100=total damage to plant; 0=no damage to plant).

[10] = test system: Winter Wheat variety 'Hereward' seed treated with cloquintocet mexyl; assay: Example C crop damage test on Winter Wheat seed treated with safener cloquintocet mexyl, post-emergence; settings: rate 250 g/ha, seed treated with cloquintocet mexyl 0.5 grams per kilogram of dry seed, evaluated after 13 days
Method: Seeds of the Winter Wheat variety ‘Hereward’ were seed treated with a wettable powder formulation of the cereal herbicide safener, cloquintocet mexyl, at a rate of 0.5 grams per kilogram of dry seed prior to the initiation of glasshouse testing. One seed was sown per 1.5 inch plastic pot into a sandy loam soil at a depth of 1 cm, 8 days prior to application of the test compounds and was watered and grown under controlled conditions in a glasshouse (at 24/16° C., day/night; 14 hours light; 65% humidity). The plants were sprayed Post-emergence with an aqueous spray solution derived from the formulation of the technical active ingredient in acetone/water (50:50) solution containing 0.5% Tween 20 (polyoxyethelyene sorbitan monolaurate, CAS RN 9005-64-5). The test plants were then grown in a glasshouse under controlled conditions in a glasshouse (at 24/16° C., day/night; 14 hours light; 65% humidity) and watered twice daily. After 13 days for pre and post-emergence, the test was evaluated (100=total damage to plant; 0=no damage to plant).

SMILES	pest or weed control at 250 g/ha [1]	pest or weed control at 250 g/ha [2]	pest or weed control at 250 g/ha [3]	pest or weed control at 250 g/ha [4]	pest or weed control at 250 g/ha [5]	pest or weed control at 250 g/ha [6]	pest or weed control at 250 g/ha [7]	pest or weed control at 250 g/ha [8]	crop damage to winter wheat at 250 g/ha [9]	Winter Wheat (Hereward) + cloquintocet mexyl damage (100=total damage to plant; 0=no damage to plant) [10]
Cc1cc(C)c(C2C(=O)C/C(=C\C3CCOC3)C2=O)c(C)c1 (stereo not shown) [Compound T17]	100%	100%	100%	100%	100%	90%	100%	100%	70%	50
Cc1cc(C)c(C2C(=O)C/C(=C\C3CCOC(C)(C)C3)C2=O)c(C)c1 (stereo not shown) [Compound T37]	100%	100%	100%	90%	100%	90%	100%	100%	80%	70
Cc1cc(C)c(C2C(=O)CC(CC3CCOC(C)(C)C3)C2=O)c(C)c1 (stereo not shown) [Compound T39]	100%	100%	100%	100%	100%	90%	100%	100%	80%	70
Cc1cc(C)c(C2C(=O)CC(CC3COCCO3)C2=O)c(C)c1 (stereo not shown) [Compound T40]	100%	100%	100%	80%	100%	80%	100%	90%	60%	10
Cc1cc(C)c(C2C(=O)CC(CC3CCN(C(=O)c4ccccc4)C3)C2=O)c(C)c1 (stereo not shown) [Compound T41]	90%	70%	100%	90%	100%	100%	100%	100%	90%	80
Cc1cc(-c2ccc(Cl)cc2)cc(C)c1C1C(=O)C/C(=C\C2CCOCC2)C1=O (stereo not shown) [Compound T62]	100%	80%	100%	70%	90%	90%	100%	100%	80%	70
Cc1cc(-c2ccc(Cl)cc2)cc(C)c1C1C(=O)CC(CC2CCOCC2)C1=O (stereo not shown) [Compound T64]	100%	50%	100%	90%	90%	90%	100%	100%	80%	70
Cc1cc(-c2ccccc2)cc(C)c1C1C(=O)C/C(=C\C2CCOCC2)C1=O (stereo not shown) [Compound T66]	80%	90%	100%	80%	60%	90%	100%	90%	50%	20
Cc1cc(-c2ccccc2)cc(C)c1C1C(=O)CC(CC2CCOCC2)C1=O (stereo not shown) [Compound T67]	100%	90%	100%	90%	100%	90%	100%	100%	70%	30
Cc1cc(C)c(C2C(=O)CC(CC3CCN(C(=O)c4ccc(F)cc4)CC3)C2=O)c(C)c1 (stereo not shown) [Compound T75]	80%	30%	70%	70%	100%	90%	90%	100%	60%	50
CCCC(=O)N1CCC(CC2CC(=O)C(c3c(C)cc(C)cc3C)C2=O)CC1 (stereo not shown) [Compound T84]	90%	50%	60%	50%	100%	90%	90%	100%	70%	60
Cc1cc(C)c(C2C(=O)CC(CC3CCN(C(=O)C4CC4)CC3)C2=O)c(C)c1 (stereo not shown) [Compound T88]	100%	90%	80%	90%	90%	90%	90%	100%	70%	50
COC(=O)N1CCC(CC2CC(=O)C(c3c(C)cc(C)cc3C)C2=O)CC1 (stereo not shown) [Compound T98]	90%	70%	90%	80%	100%	100%	90%	100%	90%	60
